Test results as given in PMC4012460, “Seven New and Two Known Lipopeptides as well as Five Known Polyketides: The Activated Production of Silent Metabolites in a Marine-Derived Fungus by Chemical Mutagenesis Strategy Using Diethyl Sulphate” (Marine Drugs, 2014).
Like-named read-outs stand apart in the source and are kept apart here.

Legend:
[1] = test system: K562 cells; set-up: inhibition rate (IR%) on K562 cells: dose or concentration left out as unconfirmed
[2] = test system: human prostate carcinoma PC-3 cells; details: read-out: IC50, cytotoxic against PC-3 cells; cited from earlier work
Method: (§1) Fellutamide A and B (8) were originally identified for their cytotoxic properties on murine leukemia P388 and L1210, and human epidermoid carcinoma KB cells with IC50 values 0.1–0.8 µg/mL [15].

[3] = test system: K562 cells; assay: cells; details: Homo sapiens, K562, 24 h, read-out: inhibition rate (IR%) on K562 cells
[4] = test system: HeLa cells; assay: cells; details: Homo sapiens, 24 h, read-out: inhibition rate (IR%) on HeLa cells
[5] = test system: HL-60 cells; assay: cells; details: Homo sapiens, HL-60, 24 h, read-out: inhibition rate (IR%) on HL-60 cells
[6] = test system: BGC-823 cells; assay: cells; details: Homo sapiens, BGC-823, 24 h, read-out: inhibition rate (IR%) on BGC-823 cells
[7] = test system: MCF-7 cells; assay: cells; details: Homo sapiens, MCF7, 24 h, read-out: inhibition rate (IR%) on MCF-7 cells
[8] = test system: murine leukemia P388 and L1210, and human epidermoid carcinoma KB cells; details: one range for both compounds and three cell lines; cited from earlier work
Method: as §1

[9] = test system: HL-60 cells; details: MTT, 24 h
[10] = test system: BGC-823 cells; details: MTT, 24 h
[11] = test system: HeLa cells; details: MTT, 24 h
[12] = MTT, 24 h at 37 °C, OD 570 nm, OD means of three wells
[13] = from IR% at different concentrations

COc1cc2c(c3oc4cccc(O)c4c(=O)c13)[C@@H]1C=CO[C@@H]1O2 [Compound 14, Sterigmatocystin]
inhibition rate (IR%) on K562 cells [1]: 37.5%

fellutamide E
IC50 [2]: 0.44 µM

fellutamide D
IC50 [2]: 0.16 µM

C[C@]12CCC[C@H](O1)c1c(cc3c(c1O)C(=O)c1c(O)cc(O)cc1C3=O)O2 [Compound 12, Averufin]
inhibition rate (IR%) on K562 cells [1, 12]: 37.9%

CCCCC[C@H](O)c1c(O)cc2c(c1O)C(=O)c1c(O)cc(O)cc1C2=O [Compound 11, Averantin]
inhibition rate (IR%) on K562 cells [1, 12]: 51.9%

C[C@]12CC[C@H](O)[C@H](O1)c1c(cc3c(c1O)C(=O)c1c(O)cc(O)cc1C3=O)O2 [Compound 13, Nidurufin]
inhibition rate (IR%) on K562 cells [1, 12]: 25.5%

CCCCC[C@H](OC)c1c(O)cc2c(c1O)C(=O)c1c(O)cc(O)cc1C2=O [Compound 10, 1′-O-Methylaverantin]
inhibition rate (IR%) on K562 cells [1, 12]: 11.6%

O=c1[nH]cc(F)c(=O)[nH]1 [Compound 5-FU, 5-fluorouracil]
inhibition at 100 µg/mL [3]: 48.5% | inhibition at 100 µg/mL [4]: 37.4% | inhibition at 100 µg/mL [5]: 38.2% | inhibition at 100 µg/mL [6]: 47.8% | inhibition at 100 µg/mL [7]: 47.4%

Fellutamide A [reference compound]
IC50, cytotoxic properties on P388, L1210 and KB cells [8]: 0.1 to 0.8 µg/mL

CCCCCCCCC[C@@H](O)CC(=O)N[C@@H](CC(N)=O)C(=O)N[C@@H](CCC(N)=O)C(=O)N[C@H](C=O)CC(C)C [Compound 8, Fellutamide B]
half-inhibitory concentration (IC50) for HL-60 [9, 13]: 59.9 µg/mL | IC50 ([9]; read-out: half-inhibitory concentration (IC50) for HL-60, value in brackets, molar): 108 µM | IC50 ([1]; 24 h): 52.5 µM | half-inhibitory concentration (IC50) for K562 ([1]; MTT, 24 h, from IR% at different concentrations): 29.1 µg/mL | IC50, cytotoxic properties on P388, L1210 and KB cells [8]: 0.1 to 0.8 µg/mL | half-inhibitory concentration (IC50) for BGC-823 [10, 13]: 77.9 µg/mL | IC50 ([10]; read-out: half-inhibitory concentration (IC50) for BGC-823, value in brackets, molar): 140 µM | half-inhibitory concentration (IC50) for HeLa [11, 13]: 59.5 µg/mL | IC50 ([11]; read-out: half-inhibitory concentration (IC50) for HeLa, value in brackets, molar): 107 µM
